# pIC50: −log10 of the molar value.
# Target: human ATR kinase (Homo sapiens (Human), UniProt Q13535)
# Test: In vitro evaluation of inhibitory activity on human ATR kinase (HTRF, ATR/ATRIP(h), GST-cMyc-p53 substrate)
# Format: biochemical
# Conditions: 50 nM GST-cMyc-p53, 30 min room temperature
# Method: IC50 values were determined to evaluate the inhibitory activity of the tested compounds on human ATR kinase.
# ATR/ATRIP(h) was incubated in assay buffer containing 50 nM GST-cMyc-p53 and Mg/ATP (according to concentration required). The reaction was initiated by adding Mg/ATP mixture. After incubating for 30 min at room temperature, a stop solution containing EDTA to was added to terminate the reaction. Finally, detecting buffer containing d^2-labeled anti-GST monoclonal antibody and europium-labeled anti-phospho Ser15 antibody against phosphorylated p^53 were added. Then the plate was read in time-resolved fluorescence mode and homogeneous time resolution was performed.
# The fluorescence (HTRF) signal was determined according to the formula HTRF=10000×(Em665 nm/Em620 nm).
# IC50 data was analyzed using XLFit version 5.3 (ID Business Solutions). Non-linear regression analysis was used to fit the sigmoidal dose response (variable slope) curve.
# human ATR kinase, sequence (Q13535 whole entry): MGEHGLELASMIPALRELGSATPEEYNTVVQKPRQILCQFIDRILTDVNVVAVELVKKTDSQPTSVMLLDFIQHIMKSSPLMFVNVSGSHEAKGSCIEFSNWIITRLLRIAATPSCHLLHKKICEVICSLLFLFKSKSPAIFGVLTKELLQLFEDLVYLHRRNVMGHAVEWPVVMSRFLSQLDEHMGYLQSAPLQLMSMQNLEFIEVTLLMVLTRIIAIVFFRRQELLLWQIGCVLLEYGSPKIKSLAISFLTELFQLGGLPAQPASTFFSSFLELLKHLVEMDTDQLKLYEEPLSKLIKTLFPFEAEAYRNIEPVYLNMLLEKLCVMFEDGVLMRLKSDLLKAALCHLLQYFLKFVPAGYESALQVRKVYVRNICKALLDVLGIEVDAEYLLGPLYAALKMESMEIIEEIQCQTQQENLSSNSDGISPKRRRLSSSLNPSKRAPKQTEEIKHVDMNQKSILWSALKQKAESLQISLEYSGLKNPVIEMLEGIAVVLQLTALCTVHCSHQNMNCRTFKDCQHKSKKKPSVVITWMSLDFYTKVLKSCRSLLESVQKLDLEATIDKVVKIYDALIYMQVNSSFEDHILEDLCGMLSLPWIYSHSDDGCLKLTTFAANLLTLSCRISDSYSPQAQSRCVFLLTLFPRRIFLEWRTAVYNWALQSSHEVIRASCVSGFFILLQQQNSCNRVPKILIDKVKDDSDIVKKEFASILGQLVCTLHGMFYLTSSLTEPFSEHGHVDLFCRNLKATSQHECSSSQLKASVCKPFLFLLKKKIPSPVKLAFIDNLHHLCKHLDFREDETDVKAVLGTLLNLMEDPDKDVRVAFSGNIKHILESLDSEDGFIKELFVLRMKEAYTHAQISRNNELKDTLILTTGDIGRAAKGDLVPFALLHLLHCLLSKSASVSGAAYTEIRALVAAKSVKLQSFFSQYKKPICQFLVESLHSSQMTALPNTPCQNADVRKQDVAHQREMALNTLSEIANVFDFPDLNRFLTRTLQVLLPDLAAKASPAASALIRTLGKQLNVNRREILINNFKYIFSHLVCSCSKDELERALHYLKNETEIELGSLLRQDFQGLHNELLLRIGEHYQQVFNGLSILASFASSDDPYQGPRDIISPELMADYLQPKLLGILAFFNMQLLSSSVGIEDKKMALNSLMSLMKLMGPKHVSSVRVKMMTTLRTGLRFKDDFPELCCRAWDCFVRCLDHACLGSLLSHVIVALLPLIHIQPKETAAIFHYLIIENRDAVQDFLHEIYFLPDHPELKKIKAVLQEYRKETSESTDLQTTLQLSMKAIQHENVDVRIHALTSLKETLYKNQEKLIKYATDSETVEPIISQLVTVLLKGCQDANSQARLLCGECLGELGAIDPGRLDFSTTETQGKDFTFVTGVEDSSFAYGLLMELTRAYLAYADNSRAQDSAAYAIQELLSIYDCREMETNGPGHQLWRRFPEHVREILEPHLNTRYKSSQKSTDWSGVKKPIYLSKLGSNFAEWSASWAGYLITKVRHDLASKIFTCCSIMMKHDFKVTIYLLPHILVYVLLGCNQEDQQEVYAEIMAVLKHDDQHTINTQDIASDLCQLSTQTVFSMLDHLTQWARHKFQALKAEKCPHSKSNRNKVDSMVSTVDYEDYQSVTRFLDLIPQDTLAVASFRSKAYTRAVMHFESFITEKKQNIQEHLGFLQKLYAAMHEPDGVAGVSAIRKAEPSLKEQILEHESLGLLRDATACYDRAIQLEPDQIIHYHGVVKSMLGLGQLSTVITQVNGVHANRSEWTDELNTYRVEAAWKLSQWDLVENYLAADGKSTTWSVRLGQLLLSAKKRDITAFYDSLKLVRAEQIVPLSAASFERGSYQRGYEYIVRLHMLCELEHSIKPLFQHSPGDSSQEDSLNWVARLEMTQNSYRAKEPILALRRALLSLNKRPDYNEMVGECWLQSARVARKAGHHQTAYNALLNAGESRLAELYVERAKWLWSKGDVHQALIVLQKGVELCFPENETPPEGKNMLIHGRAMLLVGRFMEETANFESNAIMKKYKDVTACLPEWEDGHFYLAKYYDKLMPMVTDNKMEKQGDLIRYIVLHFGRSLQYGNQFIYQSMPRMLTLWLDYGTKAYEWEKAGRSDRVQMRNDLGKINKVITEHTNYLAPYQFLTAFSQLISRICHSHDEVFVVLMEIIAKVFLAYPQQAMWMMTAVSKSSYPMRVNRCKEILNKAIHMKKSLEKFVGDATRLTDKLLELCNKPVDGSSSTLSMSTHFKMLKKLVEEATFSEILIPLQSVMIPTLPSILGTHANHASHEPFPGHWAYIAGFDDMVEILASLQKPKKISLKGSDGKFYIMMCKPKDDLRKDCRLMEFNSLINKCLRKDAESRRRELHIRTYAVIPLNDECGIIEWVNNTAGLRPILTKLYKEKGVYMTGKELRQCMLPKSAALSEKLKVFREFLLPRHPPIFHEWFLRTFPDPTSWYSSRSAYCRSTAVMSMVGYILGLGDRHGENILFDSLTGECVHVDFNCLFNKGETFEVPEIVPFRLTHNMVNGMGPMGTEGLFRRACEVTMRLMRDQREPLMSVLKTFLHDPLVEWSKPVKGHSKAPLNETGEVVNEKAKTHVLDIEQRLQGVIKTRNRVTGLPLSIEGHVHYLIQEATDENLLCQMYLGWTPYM
# human ATR kinase, sequence (Q8WXE1 whole entry partner): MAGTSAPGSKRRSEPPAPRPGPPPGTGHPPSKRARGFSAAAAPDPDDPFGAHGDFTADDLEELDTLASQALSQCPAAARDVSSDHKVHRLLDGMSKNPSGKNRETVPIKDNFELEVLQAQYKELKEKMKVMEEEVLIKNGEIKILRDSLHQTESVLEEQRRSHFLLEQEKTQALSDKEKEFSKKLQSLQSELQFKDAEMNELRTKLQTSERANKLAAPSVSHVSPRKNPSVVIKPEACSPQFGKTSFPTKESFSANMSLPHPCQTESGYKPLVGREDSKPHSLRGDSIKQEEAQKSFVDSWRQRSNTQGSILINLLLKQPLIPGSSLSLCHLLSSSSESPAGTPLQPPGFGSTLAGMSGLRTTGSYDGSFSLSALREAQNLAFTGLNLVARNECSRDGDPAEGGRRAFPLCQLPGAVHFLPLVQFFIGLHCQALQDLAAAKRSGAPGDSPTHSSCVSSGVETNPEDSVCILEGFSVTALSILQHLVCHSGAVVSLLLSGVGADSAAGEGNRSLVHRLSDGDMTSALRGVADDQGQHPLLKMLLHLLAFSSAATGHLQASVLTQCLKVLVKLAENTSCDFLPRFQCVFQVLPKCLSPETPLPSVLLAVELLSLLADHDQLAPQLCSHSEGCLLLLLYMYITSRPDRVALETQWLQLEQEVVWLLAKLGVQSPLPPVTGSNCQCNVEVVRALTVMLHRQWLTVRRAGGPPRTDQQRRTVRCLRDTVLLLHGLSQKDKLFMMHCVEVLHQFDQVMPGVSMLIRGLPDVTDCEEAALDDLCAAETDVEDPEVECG
row,SMILES,pIC50
1,C[C@@H]1COCCN1c1cc(-c2cccc3[nH]ccc23)nc(-c2ccnn2C)c1 [WX01],6.92
2,C[C@@H]1COCCN1c1cc(-c2ccnn2C)nc(-c2cccc3[nH]ccc23)n1 [WX02],7.14
3,Cc1cc(-c2cc(N3CCOC[C@H]3C)nc(-c3cccc4[nH]ccc34)n2)n(C)n1 [WX03],7.14
4,C[C@@H]1COCCN1c1nc(-c2cccc3[nH]ccc23)cc(-c2ccnn2C)n1 [WX04],7.04
5,CCn1nccc1-c1cc(-c2cccc3[nH]ccc23)nc(N2CCOC[C@H]2C)n1 [WX05],7.28
6,C[C@@H]1COCCN1c1nc(-c2ccnc3[nH]ccc23)cc(-c2ccnn2C)n1 [WX06],6.61
7,Cc1cnn(C)c1-c1cc(-c2ccnc3[nH]ccc23)nc(N2CCOC[C@H]2C)n1 [WX07],7.12
8,CCn1nccc1-c1cc(-c2ccnc3[nH]ccc23)nc(N2CCOC[C@H]2C)n1 [WX08],6.90
9,C[C@@H]1COCCN1c1nc(-c2cc(F)cc3[nH]ccc23)cc(-c2ccnn2C)n1 [WX09],6.43
10,Cc1cnn(C)c1-c1cc(-c2cc(F)cc3[nH]ccc23)nc(N2CCOC[C@H]2C)n1 [WX10],7.10
11,CCn1nccc1-c1cc(-c2cc(F)cc3[nH]ccc23)nc(N2CCOC[C@H]2C)n1 [WX11],6.72
12,Cc1cnn(C)c1-c1cc(-c2cccc3[nH]ccc23)nc(N2CCOC[C@H]2C)n1 [WX12],7.39
13,Cc1cnn(C)c1-c1cc(N2CCOC[C@H]2C)nc(-c2cccc3[nH]ccc23)n1 [WX13],7.62
14,CCn1nccc1-c1cc(N2CCOC[C@H]2C)nc(-c2cccc3[nH]ccc23)n1 [WX14],7.30
15,Cc1cc(-c2cc(N3CCOC[C@H]3C)nc(-c3ccnc4[nH]ccc34)n2)n(C)n1 [WX16],7.01
16,Cc1cnn(C)c1-c1cc(N2CCOC[C@H]2C)nc(-c2ccnc3[nH]ccc23)n1 [WX17],7.92
17,CCn1nccc1-c1cc(N2CCOC[C@H]2C)nc(-c2ccnc3[nH]ccc23)n1 [WX18],7.08
18,C[C@@H]1COCCN1c1cc(-c2ccnn2C)nc(-c2cc(F)cc3[nH]ccc23)n1 [WX19],7.09
19,Cc1cc(-c2cc(N3CCOC[C@H]3C)nc(-c3cc(F)cc4[nH]ccc34)n2)n(C)n1 [WX20],7.16
20,Cc1cnn(C)c1-c1cc(N2CCOC[C@H]2C)nc(-c2cc(F)cc3[nH]ccc23)n1 [WX21],7.57
21,CCn1nccc1-c1cc(N2CCOC[C@H]2C)nc(-c2cc(F)cc3[nH]ccc23)n1 [WX22],7.19
22,Cc1n[nH]c(C)c1-c1cc(N2CCOC[C@H]2C)nc(-c2ccnc3[nH]ccc23)n1 [WX23],6.94
23,Cc1nn(C)c(C)c1-c1cc(N2CCOC[C@H]2C)nc(-c2ccnc3[nH]ccc23)n1 [WX24],7.74
24,Cc1nn(C)cc1-c1cc(N2CCOC[C@H]2C)nc(-c2ccnc3[nH]ccc23)n1 [WX25],7.04
25,Cc1c(-c2cc(N3CCOC[C@H]3C)nc(-c3ccnc4[nH]ccc34)n2)cnn1C [WX26],6.91
26,C[C@@H]1COCCN1c1cc(-c2cn(C)nc2C(F)(F)F)nc(-c2ccnc3[nH]ccc23)n1 [WX27],6.91

row,SMILES,pIC50
1,Cc1noc(C)c1-c1cc(N2CCOC[C@H]2C)nc(-c2ccnc3[nH]ccc23)n1 [WX28],7.33
2,C[C@@H]1COCCN1c1cc(-c2cnn(C)c2CO)nc(-c2ccnc3[nH]ccc23)n1 [WX29],7.02
3,Cc1noc(C)c1-c1cc(-c2ccnc3[nH]ccc23)nc(N2CCOC[C@H]2C)c1 [WX30],7.46
4,Cc1cnn(C)c1-c1cc(-c2ccnc3[nH]ccc23)nc(N2CCOC[C@H]2C)c1 [WX31],7.41
5,Cc1n[nH]c(C)c1-c1cc(-c2ccnc3[nH]ccc23)nc(N2CCOC[C@H]2C)c1 [WX32],7.46
6,C[C@@H]1COCCN1c1cc(-c2ccnn2C)cc(-c2ccnc3[nH]ccc23)n1 [WX33],6.70
7,Cc1nnn(C)c1-c1cc(N2CCOC[C@H]2C)nc(-c2ccnc3[nH]ccc23)n1 [WX34],7.16
8,Cc1nnn(C)c1-c1cc(N2CCOC[C@H]2C)nc(-c2cccc3[nH]ccc23)n1 [WX35],7.72
9,Cc1nnn(C)c1-c1cc(N2CCOC[C@H]2C)nc(-c2cc(F)cc3[nH]ccc23)n1 [WX36],7.85
10,Cc1nnn(C)c1-c1cc(N2CCOC[C@H]2C)nc(-c2cc(CO)cc3[nH]ccc23)n1 [WX37],7.80
11,Cc1nnn(C)c1-c1cc(-c2cc(CO)cc3[nH]ccc23)nc(N2CCOC[C@H]2C)c1 [WX38],7.11
12,Cc1nnn(C)c1-c1cc(-c2ccnc3[nH]ccc23)nc(N2CCOC[C@H]2C)c1 [WX39],7.38
13,COc1cc(C)c(-c2cc(N3CCOC[C@H]3C)nc(-c3ccnc4[nH]ccc34)n2)cn1 [WX40],7.82
14,Cc1nc(F)ccc1-c1cc(N2CCOC[C@H]2C)nc(-c2ccnc3[nH]ccc23)n1 [WX41],7.11
15,COCc1cnn(C)c1-c1cc(N2CCOC[C@H]2C)nc(-c2ccnc3[nH]ccc23)n1 [WX43],7.19
16,Cc1ncn(C)c1-c1cc(N2CCOC[C@H]2C)nc(-c2ccnc3[nH]ccc23)n1 [WX44],7.19
17,Cc1nnn(C2CC2)c1-c1cc(N2CCOC[C@H]2C)nc(-c2ccnc3[nH]ccc23)n1 [WX47],7.19
18,Cc1nnc(C)n1-c1cc(-c2ccnc3[nH]ccc23)nc(N2CCOC[C@H]2C)c1 [WX48],6.98
19,Cc1nnn(C2CC2)c1-c1cc(N2CCOC[C@H]2C)nc(-c2cc(CO)cc3[nH]ccc23)n1 [WX49],7.59
20,Cc1noc(C)c1-c1cc(N2CCOC[C@H]2C)nc(-c2cc(CO)cc3[nH]ccc23)n1 [WX51],7.49
21,Cc1cc(-c2nc(-c3c(C)nnn3C)cc(N3CCOC[C@H]3C)n2)c2cc[nH]c2c1 [WX52],7.70
22,Cc1cnn(C)c1-c1cc(N2CCOC[C@H]2C)nc(-c2cc(C(=O)O)cc3[nH]ccc23)n1 [WX53],7.08
23,Cc1nnc(C)n1-c1cc(-c2cc(F)cc3[nH]ccc23)nc(N2CCOC[C@H]2C)c1 [WX54],7.57
24,Cc1nnc(C)n1-c1cc(-c2cccc3[nH]ccc23)nc(N2CCOC[C@H]2C)n1 [WX55],7.70
25,Cc1nnc(C)n1-c1cc(-c2cc(F)cc3[nH]ccc23)nc(N2CCOC[C@H]2C)n1 [WX56],7.34
26,Cc1nnc(C)n1-c1cc(-c2cccc3[nH]ccc23)nc(N2CCOC[C@H]2C)c1 [WX57],7.55

# Test system: tumor cell line LoVo
# Test: In vitro cell viability test (CellTiter-Glo), LoVo cell proliferation inhibition
# Format: cell-based
# Conditions: Homo sapiens
# Method: In this experiment, inhibitory effect of the compounds on cell proliferation was investigated by testing influence on cell viability in vitro in tumor cell line LoVo.
# CellTiter-Glo Luminescence Cell Viability Test
# The following protocols were performed according to instruction of PromegaCellTiter-Glo Luminescence cell viability test Kit (Promega-G7573). • (1) Thawing CellTiter-Glo buffer and allowing it to acclimate to room temperature. • (2) Allowing CellTiter-Glo substrate to acclimate to room temperature. • (3) Adding CellTiter-Glo buffer to a bottle of CellTiter-Glo substrate to dissolve the substrate to prepare CellTiter-Glo working solution. • (4) Vortexing slowly to full dissolution. • (5) Removing the cell culture plate and balancing it to room temperature for 30 min. • (6) Adding 50 μL (equivalent to half volume of cell culture medium in each well) of CellTiter-Glo working solution to each well, wrapping the cell plate with aluminum foil to protect from light. • (7) Shaking the culture plate on an orbital shaker for 2 min to induce cell lysis. • (8) Placing the culture plate at room temperature for 10 min to stabilize the luminescence signal. • (9) Detecting the luminescence signal on SpectraMax i3× of Molecular Devices plate reader. Data Analysis
# The following formula was used to calculate the inhibition rate of the test compound (Inhibition rate, IR): IR(%)=(1−(RLU Compound−RLU Blank control)/(RLU Vehicle control−RLU Blank control))*100%.
# The inhibition rates of different concentrations of compounds were calculated in Excel, and GraphPad Prism software was used to make the inhibition curve and calculate relevant parameters, including the minimum inhibition rate, the maximum inhibition rate and IC50.
row,SMILES,pIC50
1,"C[C@@H]1COCCN1c1cc(C2([S@](C)(=N)=O)CC2)nc(-c2ccnc3[nH]ccc23)n1 [AZD6738, reference compound]",6.09
2,Cc1nnn(C2CC2)c1-c1cc(N2CCOC[C@H]2C)nc(-c2ccnc3[nH]ccc23)n1 [WX47],6.12

# Test system: not listed separately
# Test: Pharmacokinetic properties in vivo in female Balb/c Nude mice
# Parameters: species or system mouse
# Conditions: mouse, plasma, 1 mg/kg IV
# Method: Experimental method: The purpose of this study was to determine the pharmacokinetic parameters of the compounds and calculate the oral bioavailability in female Balb/c Nude mice.
# The project involved 6 female Balb/c Nude mice. 3 mice were administered intravenously at a dose of 1 mg/kg, and plasma samples were collected at 0 h (before administration) and 0.0833, 0.25, 0.5, 1, 2, 4, 6, 8 and 24 h after administration, other 3 mice were given by oral gavage at a dose of 10 mg/kg or 25 mg/kg, and plasma samples were collected at 0 h (before dosing) and 0.5, 1, 2, 3, 4, 6, 8, 24 h after administration. Then LC/MS/MS analysis was performed for the collected samples and data was collected. The collected analysis data was calculated for relevant pharmacokinetic parameters with Phoenix WinNonlin 6.2.1 software.
SMILES,AUC(0-t) [µM·h],clearance [mL/min/kg],half-life [h]
Cc1nnn(C)c1-c1cc(N2CCOC[C@H]2C)nc(-c2ccnc3[nH]ccc23)n1 [WX34],0.787,53.9,1.22

# Same assay, conditions: mouse, plasma, 1 mg/kg IV, drug concentration at 0 min
row,SMILES,C0 [nM]
1,Cc1nnn(C)c1-c1cc(N2CCOC[C@H]2C)nc(-c2ccnc3[nH]ccc23)n1 [WX34],1260

# Same assay, conditions: mouse, plasma, 1 mg/kg IV, read-out: Vdss
row,SMILES,Vd [L/kg]
1,Cc1nnn(C)c1-c1cc(N2CCOC[C@H]2C)nc(-c2ccnc3[nH]ccc23)n1 [WX34],3.72

# Same assay, conditions: mouse, plasma, 10 mg/kg oral gavage
SMILES,AUC(0-t) [µM·h],Cmax [nM],half-life [h]
Cc1nnn(C)c1-c1cc(N2CCOC[C@H]2C)nc(-c2ccnc3[nH]ccc23)n1 [WX34],5.68,2860,1.16

# Same assay, conditions: oral bioavailability, 10 mg/kg oral vs 1 mg/kg IV
row,SMILES,F [%]
1,Cc1nnn(C)c1-c1cc(N2CCOC[C@H]2C)nc(-c2ccnc3[nH]ccc23)n1 [WX34],71.7

# Source: patent US11434232B2, “ATR inhibitor and application thereof” (WUXI BIOCITY BIOPHARMACEUTICS CO., LTD., priority 2018, dated 2022)
